Assay results taken from patent publication US8940774B2, “Tris-Quaternary Ammonium Salts and Methods for Modulating Neuronal Nicotinic Acetylcholine Receptors” (University of Kentucky Research Foundation, priority 2005, dated 2015).

Target: T1, α3β4 nicotinic receptor subtype expressed in Xenopus oocytes (Rattus norvegicus, UniProt P04757+P12392)
T1 construct: expressed in transfected cells; host or cells: Xenopus laevis oocytes injected with subunit cRNAs
Test: Inhibition of ACh evoked current through nicotinic receptors expressed in Xenopus oocytes (α3β4)
Type: cell-based
Settings: co-application with acetylcholine; FIG. 2
Protocol: Rat nicotinic receptor cDNAs clones were linearized and purified, and RNA transcripts were prepared in vitro using the appropriate mMessage mMachine kit. Mature (>9 cm) female Xenopus laevis African toads (Nasco, Ft. Atkinson, Wis.), housed in the Division of Lab Animal Resources at the University of Florida were used as a source of oocytes. Prior to surgery, frogs were anesthetized by placing the animal in a 1.5 g/L solution of MS222 for 30 minutes. Oocytes were removed from an incision made in the abdomen. […]
Each oocyte received two initial control applications of ACh, then a nicotine or analog application, and then a follow-up control application of ACh. […] Responses to each nicotine or analog application were calculated relative to the preceding ACh control responses in order to normalize the data, compensating for the varying levels of channel expression among the oocytes. […] Responses for α7 receptors were calculated as net charge (Papke et al., 2002). For subtypes other than α7, responses were calculated from the peak current amplitudes. Means and standard errors (SEM) were calculated from the normalized responses of at least four oocytes for each drug concentration. […]
For concentration-response relations, data derived from net-charge analyses were plotted using Kaleidagraph 3.0.2 (Abelbeck Software; Reading, Pa.) and curves were generated from the Hill equation […]

T1 sequence (P12392 21-495): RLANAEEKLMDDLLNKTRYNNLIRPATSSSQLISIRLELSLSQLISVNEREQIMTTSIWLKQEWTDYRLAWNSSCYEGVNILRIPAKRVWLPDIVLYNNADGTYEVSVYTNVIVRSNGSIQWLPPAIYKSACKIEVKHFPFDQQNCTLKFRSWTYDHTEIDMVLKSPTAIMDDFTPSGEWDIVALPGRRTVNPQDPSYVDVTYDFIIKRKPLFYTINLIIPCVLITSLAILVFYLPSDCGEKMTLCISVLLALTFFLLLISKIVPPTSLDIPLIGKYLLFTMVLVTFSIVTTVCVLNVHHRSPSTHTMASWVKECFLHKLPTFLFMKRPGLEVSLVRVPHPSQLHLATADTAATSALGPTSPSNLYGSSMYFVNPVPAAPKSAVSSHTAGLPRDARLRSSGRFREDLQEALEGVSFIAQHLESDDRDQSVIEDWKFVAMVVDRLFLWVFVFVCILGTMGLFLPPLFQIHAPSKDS
T1 sequence (P04757 26-499): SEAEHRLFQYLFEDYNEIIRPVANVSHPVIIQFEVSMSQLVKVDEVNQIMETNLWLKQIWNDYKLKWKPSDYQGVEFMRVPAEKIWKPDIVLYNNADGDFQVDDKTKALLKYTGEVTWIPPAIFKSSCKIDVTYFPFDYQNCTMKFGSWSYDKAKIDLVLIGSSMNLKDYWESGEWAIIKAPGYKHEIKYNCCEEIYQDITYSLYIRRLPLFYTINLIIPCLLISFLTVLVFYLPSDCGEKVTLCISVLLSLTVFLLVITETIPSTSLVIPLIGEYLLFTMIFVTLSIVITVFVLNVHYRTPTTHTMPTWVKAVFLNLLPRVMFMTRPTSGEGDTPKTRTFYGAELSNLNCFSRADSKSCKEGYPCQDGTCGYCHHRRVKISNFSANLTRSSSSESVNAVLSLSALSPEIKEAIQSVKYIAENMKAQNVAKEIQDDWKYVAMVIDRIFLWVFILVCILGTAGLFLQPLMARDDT

SMILES: CN1CCC[C@H]1c1ccc[n+](CCCC#Cc2cc(C#CCCC[n+]3cccc([C@@H]4CCCN4C)c3)cc(C#CCCC[n+]3cccc([C@@H]4CCCN4C)c3)c2)c1 [GZ551B, 1,3,5-tris-{5-[3-(1-methyl-2-S-pyrrolidinyl)pyridinium]-pent-1-ynyl}-benzene tribromide]
- inhibition of ACh response at α3β4 nicotinic receptor subtype (in words): potently inhibited
